Results from ChEMBL document CHEMBL1201862, “PubChem BioAssay data set” (2004).
“And” between values parts separate entries of the source, which are not always exact repeats. Equal values may be shown once.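 Values below derive from 48-hour exposures of cells grown in 96-well plates, with endpoints linearly interpolated between the two concentrations bracketing the appropriate inhibition level. At the GI50, growth is halved.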 The source made the active and inactive calls. No stated cut-off is given here; in the data, active = GI50 up to about 1.1 µM and inactive = higher.

How the values were obtained:
Experiment in all cases: DTP human tumour cell line panel, 48 h
U-251 = system: U-251
SK-MEL-5 = system: SK-MEL-5
UACC-257 = system: UACC-257
SF-295 = system: SF-295
MOLT-4 = system: MOLT-4
SK-MEL-28 = system: SK-MEL-28
CAKI-1 = system: CAKI-1
CCRF-CEM = system: CCRF-CEM
786-0 = system: 786-0
SK-OV-3 = system: SK-OV-3
LOX IMVI = system: LOX IMVI
A549 = system: A549
HCC 2998 = system: HCC 2998
RPMI-8226 = system: RPMI-8226
HOP-92 = system: HOP-92
UO-31 = system: UO-31

Measured: GI50

Cc1cc(C)c(-n2c(-c3ccccc3)cs/c2=N\N=C2C=C(C(C)(C)C)C(=O)C(C(C)(C)C)=C2)c(C)c1
inactive: U-251 > 100 µM | SK-MEL-5 94 µM | UACC-257 > 100 µM | SF-295 > 100 µM | MOLT-4 > 100 µM | SK-MEL-28 > 100 µM | CAKI-1 > 100 µM | CCRF-CEM > 100 µM | 786-0 > 100 µM | SK-OV-3 > 100 µM | LOX IMVI 83.8 µM | A549 > 100 µM | HCC 2998 > 100 µM | RPMI-8226 > 100 µM | HOP-92 39 µM

CC(C)C(=O)/C=C/c1ccc(Cl)c(Cl)c1
inactive: U-251 17 µM | SK-MEL-5 14.8 µM | UACC-257 21.5 µM | SF-295 13.4 µM | MOLT-4 24.4 µM | SK-MEL-28 18.7 µM | CCRF-CEM 4.53 µM | 786-0 14.5 µM | SK-OV-3 28.6 µM | UO-31 14.2 µM | A549 21 µM | HCC 2998 18.8 µM | RPMI-8226 13.8 µM | HOP-92 17.4 µM

COc1ccc2nc(NC(=O)C(=O)CC(=O)c3ccc([N+](=O)[O-])cc3)sc2c1
inactive: U-251 > 100 µM | SK-MEL-5 > 100 µM | UACC-257 > 100 µM | MOLT-4 > 100 µM | SK-MEL-28 > 100 µM | CAKI-1 > 100 µM | CCRF-CEM > 100 µM | 786-0 > 100 µM | SK-OV-3 > 100 µM | UO-31 50.7 µM | A549 > 100 µM | HCC 2998 > 100 µM | RPMI-8226 > 100 µM | HOP-92 > 100 µM

COc1cc2c(cc1C)[n+]([O-])c(C)c(C(=O)C/C(=N/NC(=O)C[N+](C)(C)C)C(=O)Nc1cccc(Cl)c1C)[n+]2[O-]
inactive: U-251 > 100 µM | SK-MEL-5 > 100 µM | UACC-257 > 100 µM | SF-295 > 100 µM | MOLT-4 > 100 µM | SK-MEL-28 > 100 µM | CAKI-1 > 100 µM | CCRF-CEM 49.9 µM | 786-0 > 100 µM | LOX IMVI > 100 µM | UO-31 > 100 µM | A549 > 100 µM | HCC 2998 > 100 µM | RPMI-8226 > 100 µM | HOP-92 > 100 µM

CCOC(=O)C(C(O)c1ccc([N+](=O)[O-])cc1)P(=O)(OCC)OCC (stereo unspecified)
inactive: U-251 > 100 µM | SK-MEL-5 99.8 µM | SF-295 > 100 µM | MOLT-4 57.9 µM | SK-MEL-28 > 100 µM | CAKI-1 > 100 µM | CCRF-CEM 35.5 µM | 786-0 > 100 µM | LOX IMVI 72.9 µM | A549 > 100 µM | HCC 2998 > 100 µM | RPMI-8226 32.9 µM | HOP-92 34 µM

Cc1cc(C)c(C(=O)C(C)C(c2ccccc2)c2ccc(Cl)cc2)c(C)c1 (stereo unspecified)
inactive: U-251 > 100 µM | SK-MEL-5 > 100 µM | UACC-257 44.2 µM and 38.5 µM | SF-295 > 100 µM | MOLT-4 65.9 µM and 50.7 µM | SK-MEL-28 > 100 µM | CAKI-1 > 100 µM | CCRF-CEM 46.3 µM and 67.5 µM | 786-0 > 100 µM | SK-OV-3 > 100 µM | UO-31 50.8 µM | A549 > 100 µM

C(=C\c1c2oc(-c3ccccc3)cc(-c3ccccc3)c-2c2ccccc12)/C=C1\c2ccccc2-c2c(-c3ccccc3)cc(-c3ccccc3)[o+]c21.[O-][Cl+3]([O-])([O-])[O-]
inactive: U-251 > 100 µM | SK-MEL-5 > 100 µM | UACC-257 > 100 µM | SF-295 > 100 µM | MOLT-4 > 100 µM | SK-MEL-28 > 100 µM | CCRF-CEM > 100 µM | 786-0 > 100 µM | SK-OV-3 > 100 µM | LOX IMVI > 100 µM | UO-31 > 100 µM | A549 > 100 µM | HCC 2998 > 100 µM | RPMI-8226 > 100 µM | HOP-92 > 100 µM

CN(C)C=C1C(=O)N(C)C(=O)N(C)C1=O
inactive: U-251 > 100 µM | SK-MEL-5 > 100 µM | UACC-257 > 100 µM | SF-295 > 100 µM | MOLT-4 > 100 µM | SK-MEL-28 > 100 µM | CAKI-1 > 100 µM | CCRF-CEM > 100 µM | 786-0 > 100 µM | LOX IMVI > 100 µM | UO-31 > 100 µM | A549 > 100 µM | HCC 2998 > 100 µM | RPMI-8226 > 100 µM | HOP-92 > 100 µM

CCCN(CCC)c1c([N+](=O)[O-])cc(C(=O)N(CCO)CCO)cc1[N+](=O)[O-]
inactive: U-251 > 100 µM | SK-MEL-5 > 100 µM | UACC-257 > 100 µM | SF-295 > 100 µM | MOLT-4 > 100 µM | SK-MEL-28 > 100 µM | CAKI-1 > 100 µM | CCRF-CEM > 100 µM | 786-0 > 100 µM | SK-OV-3 > 100 µM | UO-31 > 100 µM | A549 > 100 µM | HCC 2998 > 100 µM | RPMI-8226 > 100 µM

CCOC(=O)c1ccc(/N=C/c2ccc(N(CCC#N)S(=O)(=O)c3ccccc3)cc2C)cc1
inactive: U-251 97.1 µM | SK-MEL-5 80.7 µM | UACC-257 50 µM | SF-295 26.5 µM | MOLT-4 28.6 µM | SK-MEL-28 61.2 µM | CAKI-1 39.4 µM | CCRF-CEM 36.6 µM | 786-0 > 100 µM | SK-OV-3 76.9 µM | LOX IMVI 22.8 µM | UO-31 28.3 µM | A549 47.1 µM | HCC 2998 28.7 µM | RPMI-8226 36.2 µM

CC(C)N1CC2CC(CN(C(=O)c3ccc(Cl)cc3)C2)C1
inactive: U-251 > 100 µM | SK-MEL-5 > 100 µM | UACC-257 > 100 µM | SF-295 > 100 µM | MOLT-4 > 100 µM | SK-MEL-28 > 100 µM | CAKI-1 > 100 µM | CCRF-CEM > 100 µM | 786-0 > 100 µM | SK-OV-3 > 100 µM | LOX IMVI > 100 µM | UO-31 > 100 µM | A549 > 100 µM | RPMI-8226 > 100 µM | HOP-92 > 100 µM

C[N+](C)(C)CC(=O)N/N=C(/C(=O)Nc1ccc(Br)cc1)C1C(=O)NC(=O)NC1=O
inactive: U-251 > 100 µM | SK-MEL-5 > 100 µM | UACC-257 > 100 µM | SF-295 > 100 µM | MOLT-4 > 100 µM | SK-MEL-28 > 100 µM | CAKI-1 > 100 µM | CCRF-CEM > 100 µM | 786-0 > 100 µM | SK-OV-3 > 100 µM | LOX IMVI > 100 µM | UO-31 > 100 µM | A549 > 100 µM | HCC 2998 > 100 µM | RPMI-8226 > 100 µM

CN(C)/N=N/c1ccccc1
inactive: U-251 > 100 µM | SK-MEL-5 > 100 µM | SF-295 1.35 µM | MOLT-4 > 100 µM | SK-MEL-28 > 100 µM | CAKI-1 > 100 µM | CCRF-CEM 22 µM | 786-0 > 100 µM | SK-OV-3 > 100 µM | UO-31 26.8 µM | A549 68.5 µM | HCC 2998 38.1 µM | RPMI-8226 > 100 µM | HOP-92 > 100 µM
